Results as given in patent publication US20230323432A1, “ASSAY FOR DETECTING POINT MUTATIONS” (Bakotic Pathology Associates, LLC, priority 2022, published 2023).

Tests used:
T rubrum (ATCC-22402) = assay: Terbinafine susceptibility testing of isolates by culture on terbinafine-containing agar (CLSI M38-A3); details: wild type strain ATCC-22402
Description: (§1) The isolates are re-tested for terbinafine drug resistance by plating the isolates on the sabouraud dextrose agar (SDA)/Potato dextrose agar (PDA) plates containing different concentration of terbinafine. Reagent-grade terbinafine (TRB) were obtained in the powder form (Sigma-Aldrich, Missouri, USA). Drug stock solutions were prepared in dimethyl sulfoxide (DMSO). The dermatophyte isolates were cultured on SDA/PDA for 21-30 days. In vitro testing of the susceptibility to Terbinafine allylamine was performed according to the Clinical and Laboratory Standards Institute (CLSI) document M38-A3 (CLSI, 2018). The drugs were analyzed at the final concentration in the range of 0.002-32 μg/ml for TRB.
(§2) Wild type strains for T rubrum (ATCC-22402) and T mentagrophytes (ATCC-28146) are obtained from ATCC.

[1] = system: T mentagrophytes (ATCC-28146); assay: as above; details: wild type strain ATCC-28146
Description: as §1, §2

SMILES: CN(C/C=C/C#CC(C)(C)C)Cc1cccc2ccccc12 [terbinafine]
- terbinafine susceptibility by culture (T rubrum (ATCC-22402)): susceptible
- terbinafine susceptibility by culture [1]: susceptible
